Our source for the IC50 values is patent US11590139B2, “Substituted aminopurine compounds, compositions thereof, and methods of treatment therewith” (Signal Pharmaceuticals, LLC, priority 2014, dated 2023).

The subject of the first experiment is Lox-IMVI melanoma cell line. The experiment in a line: Lox-IMVI anti-proliferative assay (growth inhibition, Cell Titer-Glo). The conditions noted are these: Homo sapiens; IC50 activity level in the cell-based Lox-IMVI anti-proliferative assay; read-out: Activity. It counts as cell-based, human. In a few lines:
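Luminescence from cellular ATP measured viability at compound addition and again after 72 h of exposure (37 °C, 5% CO2, RPMI + 10% FBS). Doses spanned 0.5 nM to 10 μM in ten 3-fold steps with 0.2% DMSO. Values were fitted as % of DMSO-treated cells by sigmoidal dose-response.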
As to `NC(=O)[C@H]1CC[C@@H](n2c(Nc3ccc(Cl)cc3Cl)nc3cnc(NC4COCC4O)nc32)CC1` (some centres unmarked) [Example 191, (1s,4s)-4-(8-(2,4-dichlorophenylamino)-2-(4-hydroxytetrahydrofuran-3-ylamino)-9H-purin-9-yl)cyclohexanecarboxamide], the IC50 is more than 1000 nM.
Same read-out and setting: under `NC(=O)[C@H]1CC[C@@H](n2c(Nc3c(F)cc(F)cc3F)nc3cnc(N[C@@H]4CC[C@H](O)C4)nc32)CC1` [Example 332, (1S,4s)-4-(2-((1R,3S)-3-hydroxycyclopentylamino)-8-(2,4,6-trifluorophenylamino)-9H-purin-9-yl)cyclohexanecarboxamide] stands more than 1000 nM.
Still for that read-out and setting: the figure for `CC[C@H](C)Nc1ncc2nc(Nc3c(F)cccc3F)n([C@H]3CC[C@@H](C(N)=O)CC3)c2n1` [Example 335, (1R,4s)-4-(2-(sec-butylamino)-8-(2,6-difluorophenylamino)-9H-purin-9-yl)cyclohexanecarboxamide] is more than 1000 nM; for `CC1(C)CC[C@@H](Nc2ncc3nc(Nc4c(F)cc(F)cc4F)n([C@H]4CC[C@@H](C(N)=O)CC4)c3n2)C[C@H]1O` [Example 381, (1S,4s)-4-(2-((1R,3R)-3-hydroxy-4,4-dimethylcyclohexylamino)-8-(2,4,6-trifluorophenylamino)-9H-purin-9-yl)cyclohexanecarboxamide] it is more than 1000 nM.

The experiment is the same for the next values; noted with them: Homo sapiens; Lox-IMVI anti-proliferative assay, IC50 activity level; read-out: Activity.
Consider `N#Cc1cc(F)c(Nc2nc3cnc(NC4CCCOCC4)nc3n2[C@H]2CC[C@@H](C(N)=O)CC2)c(Cl)c1` (some centres unmarked) [Example 543, (1s,4s)-4-(8-(2-chloro-4-cyano-6-fluorophenylamino)-2-(oxepan-4-ylamino)-9H-purin-9-yl)cyclohexanecarboxamide], for which the IC50 was less than 250 nM.
On the same count and under the same terms, under `COC(=O)N1CCCC(Nc2ncc3nc(Nc4c(F)ccc(Cl)c4F)n([C@H]4CC[C@@H](C(N)=O)CC4)c3n2)C1` (stereo partly drawn) [Example 413, (R)-methyl 3-(9-((1s,4S)-4-carbamoylcyclohexyl)-8-(3-chloro-2,6-difluorophenylamino)-9H-purin-2-ylamino)piperidine-1-carboxylate] stands more than 1000 nM.

The same experiment, now with this note: Homo sapiens; Lox-IMVI melanoma cell line, anti-proliferative assay; read-out: Activity (IC50 activity level).
As to `C[C@]1(C(N)=O)CC[C@@H](n2c(Nc3c(Cl)cc(Cl)cc3Cl)nc3cnc(N[C@H]4CCOC[C@H]4F)nc32)CC1` [Example 719, (1R,4s)-4-(2-((3S,4S)-3-fluorotetrahydro-2H-pyran-4-ylamino)-8-(2,4,6-trichlorophenylamino)-9H-purin-9-yl)-1-methylcyclohexanecarboxamide], the IC50 was less than 250 nM.
On the same count and under the same terms, under `CS(=O)(=O)N1CCC[C@@H](Nc2ncc3nc(Nc4c(Cl)cc(Cl)cc4Cl)n([C@H]4CC[C@@H](C(N)=O)CC4)c3n2)C1` [Example 700, (1S,4s)-4-(2-((R)-1-(methylsulfonyl)piperidin-3-ylamino)-8-(2,4,6-trichlorophenylamino)-9H-purin-9-yl)cyclohexanecarboxamide] stands 500 to 1000 nM; under `CC1(C)COCC[C@H]1Nc1ncc2nc(Nc3c(F)cc(Cl)cc3Cl)n([C@H]3CC[C@@H](C(N)=O)CC3)c2n1` [Example 764, (1S,4s)-4-(8-(2,4-dichloro-6-fluorophenylamino)-2-((R)-3,3-dimethyltetrahydro-2H-pyran-4-ylamino)-9H-purin-9-yl)cyclohexanecarboxamide], 500 to 1000 nM.
The same measure, in the same setting: the figure for `CC(C)N1CCC[C@@H](Nc2ncc3nc(Nc4c(Cl)cc(Cl)cc4Cl)n([C@H]4CC[C@@H](C(N)=O)CC4)c3n2)C1` [Example 738, (1S,4s)-4-(2-((R)-1-isopropylpiperidin-3-ylamino)-8-(2,4,6-trichlorophenylamino)-9H-purin-9-yl)cyclohexanecarboxamide] is more than 1000 nM; for `C[C@]1(C(N)=O)CC[C@@H](n2c(Nc3c(F)cc(Cl)cc3Cl)nc3cnc(N[C@H]4CC[C@H](O)C4)nc32)CC1` [Example 646, (1R,4s)-4-(8-(2,4-dichloro-6-fluorophenylamino)-2-((1S,3S)-3-hydroxycyclopentylamino)-9H-purin-9-yl)-1-methylcyclohexanecarboxamide] it is 250 to 500 nM.
